The nature of data set [1]: Half life in mouse plasma at 1 uM. Format: ADME, cell-free.
Data set [2] in a line: Kinetic solubility of the compound in phosphate buffered saline at pH 7.4. The conditions noted are these: read-out: Kinetic_solubility. Format: physicochemical.
A short description of data set [3]: Intrinsic clearance in mouse liver microsomes at 1 uM. Format: ADME, Microsome. The conditions noted are these: read-out: CLH. Background: Microsomes from liver hold many membrane-bound enzymes, among them those of drug oxidation.
Data set [4] in a line: Half life in human plasma at 1 uM. Format: ADME, cell-free.
A short description of data set [5]: Intrinsic clearance in human liver microsomes at 1 uM. The conditions noted are these: read-out: CLH. Format: ADME, Microsome.
In data set [6] the target is T1, Protein-glutamine gamma-glutamyltransferase (Homo sapiens, UniProt P21980).
T1 sequence (P21980 whole entry): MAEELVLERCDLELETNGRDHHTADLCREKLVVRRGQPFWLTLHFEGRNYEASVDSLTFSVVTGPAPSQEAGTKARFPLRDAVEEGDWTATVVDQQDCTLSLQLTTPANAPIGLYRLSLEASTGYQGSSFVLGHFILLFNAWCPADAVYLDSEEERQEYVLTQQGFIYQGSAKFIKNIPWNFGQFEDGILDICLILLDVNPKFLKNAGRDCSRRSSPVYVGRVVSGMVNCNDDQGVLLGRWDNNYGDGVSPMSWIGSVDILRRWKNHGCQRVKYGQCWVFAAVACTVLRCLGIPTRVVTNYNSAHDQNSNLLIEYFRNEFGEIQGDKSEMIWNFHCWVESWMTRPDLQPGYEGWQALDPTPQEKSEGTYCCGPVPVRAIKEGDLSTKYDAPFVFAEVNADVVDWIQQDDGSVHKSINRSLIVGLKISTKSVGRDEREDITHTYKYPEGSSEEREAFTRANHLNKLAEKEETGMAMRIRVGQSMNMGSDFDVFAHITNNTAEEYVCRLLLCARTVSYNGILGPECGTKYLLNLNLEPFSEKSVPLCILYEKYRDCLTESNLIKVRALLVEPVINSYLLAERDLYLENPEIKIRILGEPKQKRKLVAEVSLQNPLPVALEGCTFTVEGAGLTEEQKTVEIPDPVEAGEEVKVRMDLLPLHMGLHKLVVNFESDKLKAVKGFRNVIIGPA
Kind of data set: Inhibition of human TGM2.

The nature of data set [7]: Apparent permeability from apical to basolateral side of wild type MDCK cells. The conditions noted are these: dog. Format: ADME, cell-based, Canis lupus familiaris.
A short description of data set [8]: Efflux ratio of permeability in wild type MDCK cells. The conditions noted are these: dog. Format: ADME, cell-based, Canis lupus familiaris.
Data set [9] in a line: Chemical stability of the compound in phosphate buffer at pH 7.4 assessed as GSH adduct formation after 120 hrs. Format: physicochemical. The conditions noted are these: pH 7.4, 120 h.
The target in data set [10] is T2, Protein-glutamine gamma-glutamyltransferase K (Homo sapiens, UniProt P22735).
T2 sequence (P22735 whole entry): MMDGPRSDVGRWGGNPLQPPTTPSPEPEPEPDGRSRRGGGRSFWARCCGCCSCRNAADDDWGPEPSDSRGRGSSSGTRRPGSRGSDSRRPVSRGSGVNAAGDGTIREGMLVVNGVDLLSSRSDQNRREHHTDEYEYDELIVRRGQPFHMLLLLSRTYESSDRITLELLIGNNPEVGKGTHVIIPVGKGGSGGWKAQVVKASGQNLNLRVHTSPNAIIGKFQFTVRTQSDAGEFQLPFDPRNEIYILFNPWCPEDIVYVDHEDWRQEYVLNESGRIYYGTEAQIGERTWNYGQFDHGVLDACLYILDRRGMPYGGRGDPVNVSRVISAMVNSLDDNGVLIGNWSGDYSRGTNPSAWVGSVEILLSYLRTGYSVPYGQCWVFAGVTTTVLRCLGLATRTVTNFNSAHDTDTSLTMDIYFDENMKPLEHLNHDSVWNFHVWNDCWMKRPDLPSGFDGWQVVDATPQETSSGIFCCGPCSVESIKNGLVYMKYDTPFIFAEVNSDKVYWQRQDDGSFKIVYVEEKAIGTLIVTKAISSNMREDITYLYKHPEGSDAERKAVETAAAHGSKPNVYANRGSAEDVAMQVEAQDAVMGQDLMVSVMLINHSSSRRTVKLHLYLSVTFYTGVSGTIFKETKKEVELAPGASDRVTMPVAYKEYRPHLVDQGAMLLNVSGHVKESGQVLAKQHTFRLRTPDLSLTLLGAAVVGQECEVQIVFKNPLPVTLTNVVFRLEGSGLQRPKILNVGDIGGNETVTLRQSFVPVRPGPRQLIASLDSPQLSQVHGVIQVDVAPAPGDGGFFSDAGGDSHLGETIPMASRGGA
Kind of data set: Inhibition of human TGM1.

Data set [11] concerns the target T3, Protein-glutamine gamma-glutamyltransferase 6 (Homo sapiens, UniProt O95932).
T3 sequence (O95932 whole entry): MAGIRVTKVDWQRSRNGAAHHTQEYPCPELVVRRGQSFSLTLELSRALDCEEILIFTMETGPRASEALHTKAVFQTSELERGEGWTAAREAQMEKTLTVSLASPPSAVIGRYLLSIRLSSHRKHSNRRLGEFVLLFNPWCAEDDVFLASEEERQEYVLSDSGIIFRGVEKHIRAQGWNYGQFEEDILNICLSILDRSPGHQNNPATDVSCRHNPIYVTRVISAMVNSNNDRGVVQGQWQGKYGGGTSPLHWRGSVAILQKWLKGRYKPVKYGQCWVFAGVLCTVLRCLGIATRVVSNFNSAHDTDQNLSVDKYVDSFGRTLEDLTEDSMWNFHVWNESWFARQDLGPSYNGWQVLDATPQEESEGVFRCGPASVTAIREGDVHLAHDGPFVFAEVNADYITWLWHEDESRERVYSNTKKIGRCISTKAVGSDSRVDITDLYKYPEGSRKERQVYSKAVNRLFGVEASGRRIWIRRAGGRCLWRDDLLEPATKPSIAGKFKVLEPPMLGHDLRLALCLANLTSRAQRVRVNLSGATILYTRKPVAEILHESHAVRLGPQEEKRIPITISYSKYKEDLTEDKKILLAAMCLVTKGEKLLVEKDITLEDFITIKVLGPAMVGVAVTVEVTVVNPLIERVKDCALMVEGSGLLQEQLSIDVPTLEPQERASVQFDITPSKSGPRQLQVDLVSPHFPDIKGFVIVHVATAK
Kind of data set: Inhibition of human TGM6.

In data set [12] the target is T4, Protein-glutamine gamma-glutamyltransferase E (Homo sapiens, UniProt Q08188).
T4 sequence (Q08188 whole entry): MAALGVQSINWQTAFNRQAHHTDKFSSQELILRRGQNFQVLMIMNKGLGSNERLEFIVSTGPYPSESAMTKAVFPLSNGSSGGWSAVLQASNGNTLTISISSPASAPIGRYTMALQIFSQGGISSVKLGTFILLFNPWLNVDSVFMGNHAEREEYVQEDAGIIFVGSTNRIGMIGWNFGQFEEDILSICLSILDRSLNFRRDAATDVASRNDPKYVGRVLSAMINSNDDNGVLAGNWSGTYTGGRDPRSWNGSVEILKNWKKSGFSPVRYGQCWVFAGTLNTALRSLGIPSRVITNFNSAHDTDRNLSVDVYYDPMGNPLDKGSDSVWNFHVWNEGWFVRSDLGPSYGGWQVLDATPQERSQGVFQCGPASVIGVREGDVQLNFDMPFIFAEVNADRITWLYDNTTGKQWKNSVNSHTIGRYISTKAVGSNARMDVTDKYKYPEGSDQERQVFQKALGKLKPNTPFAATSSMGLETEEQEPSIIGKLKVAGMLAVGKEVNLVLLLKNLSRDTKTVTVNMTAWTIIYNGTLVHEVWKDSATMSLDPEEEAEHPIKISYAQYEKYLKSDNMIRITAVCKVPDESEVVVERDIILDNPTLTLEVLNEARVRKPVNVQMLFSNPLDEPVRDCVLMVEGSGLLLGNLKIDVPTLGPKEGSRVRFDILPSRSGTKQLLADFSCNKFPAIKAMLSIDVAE
Kind of data set: Inhibition of human TGM3.

Data set [13] deals with T5, Coagulation factor XIII A chain (Homo sapiens, UniProt P00488).
T5 sequence (P00488 whole entry): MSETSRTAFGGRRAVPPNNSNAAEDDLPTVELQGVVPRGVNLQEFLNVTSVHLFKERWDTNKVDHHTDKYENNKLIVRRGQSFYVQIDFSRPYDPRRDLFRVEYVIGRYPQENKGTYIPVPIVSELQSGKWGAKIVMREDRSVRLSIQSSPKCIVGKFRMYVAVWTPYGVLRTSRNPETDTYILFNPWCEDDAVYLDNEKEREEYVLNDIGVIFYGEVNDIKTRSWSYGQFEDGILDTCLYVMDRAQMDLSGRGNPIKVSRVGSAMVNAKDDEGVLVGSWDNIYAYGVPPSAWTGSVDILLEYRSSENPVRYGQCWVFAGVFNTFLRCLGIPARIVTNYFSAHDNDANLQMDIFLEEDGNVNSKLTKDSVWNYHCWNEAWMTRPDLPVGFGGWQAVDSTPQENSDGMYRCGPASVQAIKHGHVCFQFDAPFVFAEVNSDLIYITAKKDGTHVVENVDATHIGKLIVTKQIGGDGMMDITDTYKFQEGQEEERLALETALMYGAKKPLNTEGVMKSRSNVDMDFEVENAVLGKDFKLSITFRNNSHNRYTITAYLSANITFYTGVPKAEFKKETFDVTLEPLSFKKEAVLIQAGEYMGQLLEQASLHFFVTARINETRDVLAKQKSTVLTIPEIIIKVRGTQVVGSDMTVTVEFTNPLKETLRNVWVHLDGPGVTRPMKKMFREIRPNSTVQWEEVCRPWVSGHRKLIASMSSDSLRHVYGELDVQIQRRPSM
Kind of data set: Inhibition of human factor-13A.

In data set [14] the target is T6, Protein-glutamine gamma-glutamyltransferase 2 (Mus musculus, UniProt P21981).
T6 sequence (P21981 whole entry): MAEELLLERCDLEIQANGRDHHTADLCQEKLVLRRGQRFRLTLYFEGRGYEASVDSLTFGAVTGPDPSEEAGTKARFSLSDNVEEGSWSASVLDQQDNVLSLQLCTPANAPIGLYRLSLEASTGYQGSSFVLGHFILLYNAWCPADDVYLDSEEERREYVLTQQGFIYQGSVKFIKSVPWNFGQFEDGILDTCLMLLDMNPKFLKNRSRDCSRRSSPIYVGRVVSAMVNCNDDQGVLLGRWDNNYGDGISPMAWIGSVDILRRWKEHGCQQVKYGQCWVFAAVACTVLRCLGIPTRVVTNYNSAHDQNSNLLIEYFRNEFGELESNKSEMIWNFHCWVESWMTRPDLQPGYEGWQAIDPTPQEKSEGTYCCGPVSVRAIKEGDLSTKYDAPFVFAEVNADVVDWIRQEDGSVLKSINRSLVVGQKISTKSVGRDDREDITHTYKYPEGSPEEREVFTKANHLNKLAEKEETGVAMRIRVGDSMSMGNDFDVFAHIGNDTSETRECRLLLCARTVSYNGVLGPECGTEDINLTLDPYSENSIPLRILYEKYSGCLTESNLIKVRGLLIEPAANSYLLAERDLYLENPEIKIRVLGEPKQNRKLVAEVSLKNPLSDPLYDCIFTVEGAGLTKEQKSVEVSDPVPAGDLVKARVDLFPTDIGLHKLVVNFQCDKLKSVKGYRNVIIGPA
Kind of data set: Inhibition of mouse TGM2.

Structures are written as SMILES. Some results are limits rather than exact numbers.

What is called half-life is the time needed for the level to fall by half in the phase considered. Higher therefore signals slow decline. Usually IC50 stands for the concentration needed to halve the response being measured. Read a low IC50 as greater potency in that assay. A word on the Papp A→B: it is the apparent permeability from the apical to the basolateral side of a cell layer. The efflux ratio is a quotient of directional permeabilities that is used to spot active efflux.

For the compound `C=CC(=O)NC1CCN(S(=O)(=O)c2ccc(C(=O)NCCc3ccccc3)cc2)CC1`, the half-life at 1 µM in data set [1] and in data set [4] was over 6 h each time. Besides, the solubility kinetic in data set [2] is under 10 µg/mL. In addition, the results for the microsomal CLint at 1 µM in data set [3] and in data set [5] were 99 µL/min/mg and 595 µL/min/mg, respectively. The same compound displayed an IC50 in [6] of 0.18 µM. In addition, in [7], the Papp A→B is 8.3 ×10⁻⁶ cm/s. In addition, the efflux ratio in [8] amounted to 44.
Regarding `C=CC(=O)NC1CCN(S(=O)(=O)c2ccc(NC(=O)OCc3ccccc3)cc2)CC1`, the values for the half-life at 1 µM in data set [1] and in data set [4] were 4 h and over 6 h, respectively. The Stability entry in data set [9] is on record as “Stable”. In addition, the IC50 in data set [10] was 0.91 µM; in [6], 0.28 µM; in [11], 8.9 µM; in [12], over 80 µM; in data set [13] it was 3.6 µM.
As to `C=CC(=O)NC1CCN(S(=O)(=O)c2ccc(C(=O)NCCc3ccc(OC)cc3)cc2)CC1`, the half-life at 1 µM in data set [1] and in [4] was over 6 h in each case. The IC50 in data set [14] was 0.055 µM; in data set [10], 1.2 µM; in data set [11], 34 µM; in data set [13], 6.4 µM.

(Values after ChEMBL document CHEMBL2150866, “Irreversible 4-Aminopiperidine Transglutaminase 2 Inhibitors for Huntington's Disease” (ACS Med Chem Lett, 2012).)
